Test results from patent US20250243488A1, “METHODS OF MODULATING PROGRANULIN EXPRESSION USING ANTISENSE OLIGONUCLEOTIDES TARGETING REGULATORY RNAS” (Camp4 Therapeutics Corporation, priority 2022, published 2025).
Oligonucleotides are written 5' to 3', each unit as a sugar letter and its base; * is a phosphorothioate linkage, no mark a phosphodiester; rarer units and linkages stand in square brackets, end groups in braces. Plain capitals give the bases only. e = 2'-O-(2-methoxyethyl) (MOE); l = locked nucleic acid (LNA); [5mC] = 5-methylcytosine; d = 2'-deoxy (DNA)

System: GRN mRNA
Test: GRN mRNA qPCR in SK-N-AS cells transfected with ASOs
Format: cell-based, human
Conditions: SK-N-AS; for GRN mRNA upregulation as compared to control ASO CO-1589: Table 8 series
Outline: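 Human neuroblastoma SK-N-AS cells transfected with ASOs at increasing concentrations (20 to 160 nM in initial titrations); GRN mRNA quantified by qPCR after 48 hours. Normalized to GAPDH and PPIA, fold change relative to steric non-targeting control ASO(s) (sNTC/CO-1589, with CO-3772 and CO-1929 in some series).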

[1] = Table 7, normalized to CO-1589 (sNTC1)
[2] = Table 8, normalized to CO-1589 (sNTC1)
[3] = Table 12, normalized to CO-1589

Row | Substance | 30 nM FC (GRN mRNA) [3] [FC] | 60 nM FC (GRN mRNA) [3] [FC] | 120 nM FC (GRN mRNA) [3] [FC] | also measured
1 | CO-5266: CO-3423 with additional LNA tiling and PO bond modifications (antisense GGACTTGGGAGTGGTGACTG; 2'-MOE, mixed PS/PO, 5-methylcytosine; listed as RNA; modified_base 1..7: mod_base = OTHER; note = Phosphorothioate linkage; modified_base 17..20: mod_base = OTHER; modified_base 1..20: mod_base = OTHER; note = 2'-O-(2-methoxyethyl) ribonucleotide; modified_base 4) |  |  |  | 7.5 nM FC (GRN mRNA) [1]: 1.0 FC; 13 nM FC (GRN mRNA) [1]: 1.0 FC; 30 nM FC (GRN mRNA) [1]: 1.2 FC; 60 nM FC (GRN mRNA) [1]: 1.7 FC; 120 nM FC (GRN mRNA) [1]: 2.0 FC; 150 nM FC (GRN mRNA) [1]: 2.2 FC
2 | CO-5267: CO-3423 with additional LNA tiling and PO bond modifications (antisense GGACTTGGGAGTGGTGACTG; 2'-MOE, mixed PS/PO, 5-methylcytosine; listed as RNA; modified_base 1..9: mod_base = OTHER; note = Phosphorothioate linkage; modified_base 17..20: mod_base = OTHER; modified_base 1..20: mod_base = OTHER; note = 2'-O-(2-methoxyethyl) ribonucleotide; modified_base 4) |  |  |  | 7.5 nM FC (GRN mRNA) [1]: 1.0 FC; 13 nM FC (GRN mRNA) [1]: 1.0 FC; 30 nM FC (GRN mRNA) [1]: 1.2 FC; 60 nM FC (GRN mRNA) [1]: 1.7 FC; 120 nM FC (GRN mRNA) [1]: 1.9 FC; 150 nM FC (GRN mRNA) [1]: 2.3 FC
3 | CO-5288: ASO based on CO-3463 incorporating additional LNA modifications (antisense lG*lG*eA*lT*lA*eG*lG*eA*lT*eA*lG*eG*lA*eG*l[5mC]*eG*lA*eG*l[5mC]*l[5mC]) |  |  |  | GRN mRNA upregulation as compared to control ASO CO-1589: 2 fold; 7.5 nM FC (GRN mRNA) [2]: 1.3 FC; 13 nM FC (GRN mRNA) [2]: 1.5 FC; 30 nM FC (GRN mRNA) [2]: 1.5 FC; 60 nM FC (GRN mRNA) [2]: 1.9 FC; 120 nM FC (GRN mRNA) [2]: 1.9 FC; 150 nM FC (GRN mRNA) [2]: 2.1 FC
4 | CO-5289: ASO based on CO-3463 incorporating additional LNA modifications (antisense GGATAGGATAGGAGCGAGCC; LNA/MOE mixmer, PS backbone, 5-methylcytosine; listed as RNA; modified_base 1..20: mod_base = OTHER; note = Phosphorothioate linkage; modified_base 1..2: mod_base = OTHER; note = locked nucleic acid; modified_base 3: mod_base = OTHER; note = 2'-O-(2-methoxyethyl) ribonucleotide; modified_base 4: mod_base) |  |  |  | GRN mRNA upregulation as compared to control ASO CO-1589: 2 fold; 7.5 nM FC (GRN mRNA) [2]: 1.4 FC; 13 nM FC (GRN mRNA) [2]: 1.4 FC; 30 nM FC (GRN mRNA) [2]: 1.5 FC; 60 nM FC (GRN mRNA) [2]: 1.9 FC; 120 nM FC (GRN mRNA) [2]: 1.9 FC; 150 nM FC (GRN mRNA) [2]: 1.9 FC
5 | CO-6380: ASO based on parent ASO CO-3462 (antisense eA*eA*eA*eA*e[5mC]*eA*eA*eA*e[5mC]*eA*e[5mC]*eA*e[5mC]*eA*eA*eG*eT*e[5mC]*e[5mC]*eG) | 0.8 | 0.8 | 0.8 | 
6 | CO-6381: ASO based on parent ASO CO-3462 (antisense eT*eG*eA*eT*e[5mC]*eA*eG*e[5mC]*eT*eT*eG*eG*eG*e[5mC]*eG*eA*e[5mC]*eT*eG*eA) | 0.8 | 0.7 | 1.0 | 
7 | CO-6382: ASO based on parent ASO CO-3462 (antisense e[5mC]*eT*eA*eT*eG*eA*eT*e[5mC]*eA*eG*e[5mC]*eT*eT*eG*eG*eG*e[5mC]*eG*eA*e[5mC]) | 0.8 | 0.8 | 0.9 | 
8 | CO-6383: ASO based on parent ASO CO-3462 (antisense eT*eA*eG*eG*eA*dG*dA*dA*dT*d[5mC]*dG*d[5mC]*dT*dT*dT*eG*eG*eG*eA*eG) | 1.2 | 1.0 | 1.2 | 
9 | CO-6384: ASO based on parent ASO CO-3462 (antisense eG*eT*eA*eG*eG*eA*eG*eA*eA*eT*e[5mC]*eG*e[5mC]*eT*eT*eT*eG*eG*eG*eA) | 1.0 | 1.0 | 1.5 | 
10 | CO-6385: ASO based on parent ASO CO-3462 (antisense e[5mC]*eG*eG*eT*eA*eG*eG*eA*eG*eA*eA*eT*e[5mC]*eG*e[5mC]*eT*eT*eT*eG*eG) | 1.1 | 1.2 | 1.3 | 
11 | CO-6386: ASO based on parent ASO CO-3462 (antisense eG*e[5mC]*eG*eA*eG*e[5mC]*e[5mC]*eA*eG*e[5mC]*eT*e[5mC]*eA*eG*eT*eA*eG*e[5mC]*eT*e[5mC]) | 1.2 | 0.9 | 1.1 | 
12 | CO-6387: ASO based on parent ASO CO-3462 (antisense eT*eA*eG*eG*eA*dG*dA*dA*eT*d[5mC]*dG*e[5mC]*dT*dT*dT*eG*eG*eG*eA*eG) | 1.3 | 1.0 | 1.1 | 
13 | CO-6388: ASO based on parent ASO CO-3462 (antisense eT*eA*eG*eG*eA*lG*dA*dA*lT*d[5mC]*dG*l[5mC]*dT*dT*lT*eG*eG*eG*eA*eG) | 1.1 | 1.0 | 1.4 | 
14 | CO-6389: ASO based on parent ASO CO-3462 (antisense eT*eA*eG*lG*eA*dG*dA*lA*dT*d[5mC]*dG*l[5mC]*dT*dT*dT*lG*eG*eG*eA*eG) | 1.0 | 1.0 | 2.1 | 
15 | CO-6390: ASO based on parent ASO CO-3462 (antisense eT*eA*eG*eG*lA*dG*dA*dA*lT*d[5mC]*dG*d[5mC]*lT*dT*dT*eG*lG*eG*eA*eG) | 1.3 | 1.3 | 1.5 | 
16 | CO-6391: ASO based on parent ASO CO-3462 (antisense eT*eA*eG*eG*eA*lG*eA*eA*lT*e[5mC]*eG*l[5mC]*eT*eT*lT*eG*eG*eG*eA*eG) | 1.3 | 1.0 | 1.6 | 
17 | CO-6392: ASO based on parent ASO CO-3462 (antisense eT*eA*eG*lG*eA*lG*eA*lA*eT*l[5mC]*eG*l[5mC]*eT*lT*eT*lG*eG*lG*eA*eG) | 1.0 | 0.8 | 1.0 | 
18 | CO-6393: ASO based on parent ASO CO-3462 (antisense eT*eA*lG*eG*lA*eG*lA*eA*lT*e[5mC]*lG*e[5mC]*lT*eT*lT*eG*lG*eG*eA*eG) | 0.9 | 0.7 | 1.0 | 
19 | CO-6394: ASO based on parent ASO CO-3462 (antisense eT*eA*lG*eG*eA*lG*eA*eA*lT*e[5mC]*eG*l[5mC]*eT*eT*lT*eG*eG*lG*eA*eG) | 1.1 | 0.9 | 1.3 | 
20 | CO-6395: ASO based on parent ASO CO-3462 (antisense eT*eA*eG*eG*lA*eG*eA*eA*lT*e[5mC]*eG*e[5mC]*lT*eT*eT*eG*lG*eG*eA*eG) | 1.0 | 1.3 | 1.6 | 
21 | CO-6396: ASO based on parent ASO CO-3462 (antisense eT*eA*eG*lG*eA*eG*eA*lA*eT*e[5mC]*eG*l[5mC]*eT*eT*eT*lG*eG*eG*eA*eG) | 1.4 | 1.9 | 1.9 | 
